Reference: publication PMC10147662, “Structural basis for the ligand promiscuity of the neofunctionalized, carotenoid-binding fasciclin domain protein AstaP” (Communications Biology, 2023)

Assays:
[1] = target: AstaPo1 (AstaP-orange1), residues 21-223 (Coelastrella astaxanthina, UniProt S6BQ14); experiment: differential scanning calorimetry, holoform vs apoform; type: binding; details: 20 mM Na-phosphate pH 7.0, 1 °C per min, apo Tm ~60 °C
AstaPo1^41–190 = target: T1, AstaPo1^41–190 (Coelastrella astaxanthina, UniProt S6BQ14); experiment: SEC with diode-array absorbance; Trp fluorescence quenching; DSC of holoform; type: binding; details: holoform from ZEA-synthesizing E. coli; apoform insoluble
T1 construct: gene astaP; isolated FAS1 domain 41-190, N- and C-terminal regions removed, His6 cut leaving GPHM, E. coli, 16 kDa, monomer
T1 sequence (S6BQ14 entry or part of it): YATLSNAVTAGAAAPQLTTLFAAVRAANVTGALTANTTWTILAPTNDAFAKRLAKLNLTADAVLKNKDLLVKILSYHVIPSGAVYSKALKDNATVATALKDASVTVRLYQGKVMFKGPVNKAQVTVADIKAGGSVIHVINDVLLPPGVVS

AstaPo1 (AstaP-orange1), residues 21-223, sequence (S6BQ14 entry or part of it): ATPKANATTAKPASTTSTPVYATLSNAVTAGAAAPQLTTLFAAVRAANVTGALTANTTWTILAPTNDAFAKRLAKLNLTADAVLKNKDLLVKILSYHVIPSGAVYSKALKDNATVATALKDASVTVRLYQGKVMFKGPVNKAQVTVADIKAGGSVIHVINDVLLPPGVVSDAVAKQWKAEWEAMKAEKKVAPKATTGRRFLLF

CC1=C(/C=C/C(C)=C/C=C/C(C)=C/C=C/C=C(C)/C=C/C=C(C)/C=C/C2=C(C)C(=O)CCC2(C)C)C(C)(C)CCC1=O [canthaxanthin]
Tm increase ([1]; holoform from CAN-synthesizing E. coli): > 15 °C

CC1=C(/C=C/C(C)=C/C=C/C(C)=C/C=C/C=C(C)/C=C/C=C(C)/C=C/C2=C(C)C[C@@H](O)CC2(C)C)C(C)(C)C[C@H](O)C1 [zeaxanthin]
SEC with diode-array absorbance; Trp fluorescence quenching; DSC of holoform (AstaPo1^41–190): which confirms the direct carotenoid interaction within this domain | Tm increase ([1]; holoform from ZEA-synthesizing E. coli): > 15 °C
